The target of this assay is T1, recombinant rat mGluR5 (Rattus norvegicus, UniProt P31424).
T1 construct: expressed in transfected cells
Put plainly: Functional calcium flux assay (FLIPR), antagonism of glutamate-evoked [Ca2+]i increase. The settings on record: HEK293 cells stably expressing recombinant rat mGluR5; Fluo-8; 15 min incubation of test compound, then submaximal glutamate. Type of assay: cell-based. On the procedure:
Functional Calcium Flux Assay Methodology
For functional assays, HEK293 cells stably expressing recombinant rat mGluR5 were seeded in 384-well plates and dye loaded using Fluo-8. Cells were then washed to remove the un-incorporated dye. Antagonist evaluation was performed following a 15 min incubation of the test compound followed by the addition of submaximal concentration of glutamate. Intracellular calcium ([Ca^2+]i) measurements were performed using a fluorometric imaging plate reader (FLIPR, Molecular Devices). The glutamate-evoked increase in [Ca^2+]i in the presence of the test compounds was compared to the response to glutamate alone (the positive control). Antagonist inhibition curves were fitted with a 4-parameter logistic equation giving IC50 values, and Hill coefficients using an iterative nonlinear curve fitting algorithm.
The tables below provide IC50 data in this assay. In the activity column, A=IC50 >1,000 and ≤5,000 nM; B=IC50>500 and ≤1,000 nM and C=IC50≤500 nM.

Some results are limits rather than exact numbers.

T1 sequence (P31424 21-1203): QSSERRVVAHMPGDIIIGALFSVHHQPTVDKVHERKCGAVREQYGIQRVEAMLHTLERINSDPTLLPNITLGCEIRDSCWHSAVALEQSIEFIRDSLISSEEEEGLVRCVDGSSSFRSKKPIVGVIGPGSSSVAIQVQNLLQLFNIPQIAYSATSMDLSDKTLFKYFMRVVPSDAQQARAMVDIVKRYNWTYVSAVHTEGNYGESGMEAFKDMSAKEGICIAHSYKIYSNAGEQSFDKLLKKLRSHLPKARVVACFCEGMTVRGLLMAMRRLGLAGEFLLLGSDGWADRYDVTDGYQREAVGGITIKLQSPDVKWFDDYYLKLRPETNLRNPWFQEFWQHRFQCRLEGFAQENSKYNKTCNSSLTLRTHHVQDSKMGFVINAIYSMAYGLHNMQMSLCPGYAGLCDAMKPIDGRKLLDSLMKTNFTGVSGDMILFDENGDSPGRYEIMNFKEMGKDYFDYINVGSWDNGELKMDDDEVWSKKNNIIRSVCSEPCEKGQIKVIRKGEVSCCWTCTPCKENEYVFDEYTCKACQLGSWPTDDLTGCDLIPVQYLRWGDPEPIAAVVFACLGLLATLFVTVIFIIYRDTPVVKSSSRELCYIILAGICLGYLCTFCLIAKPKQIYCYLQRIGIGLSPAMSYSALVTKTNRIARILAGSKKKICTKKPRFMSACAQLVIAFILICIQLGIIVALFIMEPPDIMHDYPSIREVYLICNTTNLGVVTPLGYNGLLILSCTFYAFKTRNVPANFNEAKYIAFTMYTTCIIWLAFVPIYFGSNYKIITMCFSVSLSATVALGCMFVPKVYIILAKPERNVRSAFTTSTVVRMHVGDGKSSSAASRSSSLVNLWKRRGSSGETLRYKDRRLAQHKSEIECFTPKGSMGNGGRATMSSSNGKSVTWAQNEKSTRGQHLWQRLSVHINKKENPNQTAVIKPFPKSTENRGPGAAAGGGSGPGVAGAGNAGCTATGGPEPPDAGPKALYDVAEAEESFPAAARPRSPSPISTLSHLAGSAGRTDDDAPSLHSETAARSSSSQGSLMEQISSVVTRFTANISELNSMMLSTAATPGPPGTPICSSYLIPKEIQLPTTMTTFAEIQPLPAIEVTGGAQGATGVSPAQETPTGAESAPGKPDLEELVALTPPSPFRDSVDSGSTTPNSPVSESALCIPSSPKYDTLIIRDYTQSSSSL

Take `N#Cc1cc(I)cc(-n2cc(C#Cc3ccccn3)c3ccccc32)c1` [Example Compound 1, 3-iodo-5-(3-(pyridin-2-ylethynyl)-1H-indol-1-yl)benzonitrile]: the IC50 was not above 500 nM.

As to `N#Cc1cc(F)cc(-n2cc(C#Cc3ccccn3)c3ccccc32)c1` [Example Compound 2, 3-fluoro-5-(3-(pyridin-2-ylethynyl)-1H-indol-1-yl)benzonitrile], the IC50 is not above 500 nM.

In the case of `Fc1ccc(-n2cc(C#Cc3ccccn3)c3ccccc32)cc1` [Example Compound 3, 1-(4-fluorophenyl)-3-(pyridin-2-ylethynyl)-1H-indole], the half-inhibitory concentration (IC50) was not above 500 nM. The value for `Fc1ccc(-n2cc(C#Cc3ncccn3)c3ccccc32)cc1` [Example Compound 4, 1-(4-fluorophenyl)-3-(pyrimidin-2-ylethynyl)-1H-indole] was not above 500 nM; that for `N#Cc1cc(F)cc(-n2cc(F)c(C#Cc3ccccn3)c2)c1` [Example Compound 5, 3-fluoro-5-(3-fluoro-4-(pyridin-2-ylethynyl)-1H-pyrrol-1-yl)benzonitrile] was not above 500 nM. With `N#Cc1cc(F)cc(-n2ccc(C#Cc3ccccn3)c2)c1` [Example Compound 6, 3-fluoro-5-(3-(pyridin-2-ylethynyl)-1H-pyrrol-1-yl)benzonitrile], the IC50 was not above 500 nM. For `Fc1ccc(-n2ccc(C#Cc3ccccc3)c2)cc1` [Example Compound 7, 1-(4-fluorophenyl)-3-(phenylethynyl)-1H-pyrrole] the value was not above 500 nM. The value for `Cc1cc(C#Cc2ccccn2)c(C)n1-c1ccc(OC(F)(F)F)cc1` [Example Compound 8, 2-((2,5-dimethyl-1-(4-(trifluoromethoxy)phenyl)-1H-pyrrol-3-yl)ethynyl)pyridine] was not above 500 nM; that for `Cc1cc(C#Cc2ncccn2)c(C)n1-c1ccc(OC(F)(F)F)cc1` [Example Compound 9, 2-((2,5-dimethyl-1-(4-(trifluoromethoxy)phenyl)-1H-pyrrol-3-yl)ethynyl)pyrimidine] was not above 500 nM; that for `Cc1cc(C#Cc2ccncc2)c(C)n1-c1ccc(OC(F)(F)F)cc1` [Example Compound 10, 4-((2,5-dimethyl-1-(4-(trifluoromethoxy)phenyl)-1H-pyrrol-3-yl)ethynyl)pyridine] was 1000 to 5000 nM.

As a reminder, the IC50 is the concentration needed to halve the response being measured.

The values are drawn from patent publication US10669255B2, “Pyrrole derivatives” (HUA MEDICINE (SHANGHAI) LTD., priority 2016, dated 2020).
